Active and inactive are the calls of the source. The calls are words filed in the database; no cut-off is given here.
What was measured:
[1] = target: Serine/threonine-protein kinase pim-1 (Homo sapiens, UniProt P11309); experiment: Inhibition of PIM1 (unknown origin) assessed as residual enzyme activity at 50 uM by [33P]-ATP filter binding kinase assay relative to control
[2] = target: Aurora kinase B (Homo sapiens, UniProt Q96GD4); experiment: Inhibition of Aurora B (unknown origin) assessed as residual enzyme activity at 1 uM by [33P]-ATP filter binding kinase assay relative to control
Sequence of Aurora kinase B (Q96GD4 whole entry): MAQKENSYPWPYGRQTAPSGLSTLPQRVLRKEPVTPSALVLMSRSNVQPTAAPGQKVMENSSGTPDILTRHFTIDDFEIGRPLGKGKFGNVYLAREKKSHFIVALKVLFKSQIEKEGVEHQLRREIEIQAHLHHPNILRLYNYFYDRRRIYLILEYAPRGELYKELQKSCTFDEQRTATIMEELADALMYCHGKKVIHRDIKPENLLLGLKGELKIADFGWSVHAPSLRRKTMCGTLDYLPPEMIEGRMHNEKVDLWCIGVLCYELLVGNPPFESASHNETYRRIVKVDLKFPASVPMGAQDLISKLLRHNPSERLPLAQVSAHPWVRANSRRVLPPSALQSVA

[3] = target: Mitogen-activated protein kinase kinase kinase 11 (Homo sapiens, UniProt Q16584); experiment: Inhibition of MLK3 (unknown origin) assessed as residual enzyme activity at 1 uM by [33P]-ATP filter binding kinase assay relative to control
Sequence of Mitogen-activated protein kinase kinase kinase 11 (Q16584 whole entry, looked up, the tested form may be a part): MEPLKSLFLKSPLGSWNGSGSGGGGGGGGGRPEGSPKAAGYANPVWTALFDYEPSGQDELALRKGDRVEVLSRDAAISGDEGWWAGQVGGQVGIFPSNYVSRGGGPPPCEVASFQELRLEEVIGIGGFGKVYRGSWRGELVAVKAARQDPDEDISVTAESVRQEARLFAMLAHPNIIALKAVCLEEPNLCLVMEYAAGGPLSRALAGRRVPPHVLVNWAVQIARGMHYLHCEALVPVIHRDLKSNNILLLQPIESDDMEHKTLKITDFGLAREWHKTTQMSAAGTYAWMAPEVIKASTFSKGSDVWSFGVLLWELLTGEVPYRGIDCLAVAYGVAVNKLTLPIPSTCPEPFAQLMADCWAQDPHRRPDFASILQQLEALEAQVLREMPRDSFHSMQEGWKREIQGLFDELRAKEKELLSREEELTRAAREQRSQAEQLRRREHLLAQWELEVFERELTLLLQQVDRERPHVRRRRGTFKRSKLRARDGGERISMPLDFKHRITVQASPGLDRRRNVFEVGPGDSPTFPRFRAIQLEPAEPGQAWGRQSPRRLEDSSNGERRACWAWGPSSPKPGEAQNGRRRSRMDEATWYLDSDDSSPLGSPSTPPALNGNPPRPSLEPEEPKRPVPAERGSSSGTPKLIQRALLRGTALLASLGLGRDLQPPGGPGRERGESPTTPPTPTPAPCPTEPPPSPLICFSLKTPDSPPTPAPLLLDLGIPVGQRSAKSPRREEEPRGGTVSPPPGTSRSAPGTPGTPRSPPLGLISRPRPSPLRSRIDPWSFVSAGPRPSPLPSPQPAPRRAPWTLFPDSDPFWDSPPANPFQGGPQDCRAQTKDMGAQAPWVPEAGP

[4] = target: Serine/threonine-protein kinase pim-3 (Homo sapiens, UniProt Q86V86); experiment: Binding affinity to wild-type human partial length PIM3 (G16 to A317 residues) expressed in bacterial expression system assessed as residual binding level at 10 uM by active-site directed competition binding assay based Kinomescan method relative to control
[5] = target: T1, Serine/threonine-protein kinase pim-2 (Homo sapiens, UniProt Q9P1W9); experiment: Binding affinity to wild-type human partial length PIM2 (M1 to E291 residues) expressed in bacterial expression system assessed as residual binding level at 10 uM by active-site directed competition binding assay based Kinomescan method relative to control
T1 sequence (Q9P1W9 whole entry, looked up, the tested form may be a part): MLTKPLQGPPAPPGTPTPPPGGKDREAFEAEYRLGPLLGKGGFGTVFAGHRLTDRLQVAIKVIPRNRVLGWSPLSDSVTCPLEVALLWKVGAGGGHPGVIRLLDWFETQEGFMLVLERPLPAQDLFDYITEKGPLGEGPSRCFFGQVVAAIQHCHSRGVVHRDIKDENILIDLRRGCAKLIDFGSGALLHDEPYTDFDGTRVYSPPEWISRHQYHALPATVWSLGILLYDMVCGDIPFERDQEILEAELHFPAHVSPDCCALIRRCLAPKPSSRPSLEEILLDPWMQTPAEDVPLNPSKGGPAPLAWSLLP

[6] = target: T2, Mitogen-activated protein kinase kinase kinase 7 (Homo sapiens) (UniProt O43318); experiment: Binding affinity to wild-type human partial length TAK1 (M1 to Q303 residues) expressed in mammalian expression system assessed as residual binding level at 10 uM by active-site directed competition binding assay based Kinomescan method relative to control
T2 sequence (whole entry): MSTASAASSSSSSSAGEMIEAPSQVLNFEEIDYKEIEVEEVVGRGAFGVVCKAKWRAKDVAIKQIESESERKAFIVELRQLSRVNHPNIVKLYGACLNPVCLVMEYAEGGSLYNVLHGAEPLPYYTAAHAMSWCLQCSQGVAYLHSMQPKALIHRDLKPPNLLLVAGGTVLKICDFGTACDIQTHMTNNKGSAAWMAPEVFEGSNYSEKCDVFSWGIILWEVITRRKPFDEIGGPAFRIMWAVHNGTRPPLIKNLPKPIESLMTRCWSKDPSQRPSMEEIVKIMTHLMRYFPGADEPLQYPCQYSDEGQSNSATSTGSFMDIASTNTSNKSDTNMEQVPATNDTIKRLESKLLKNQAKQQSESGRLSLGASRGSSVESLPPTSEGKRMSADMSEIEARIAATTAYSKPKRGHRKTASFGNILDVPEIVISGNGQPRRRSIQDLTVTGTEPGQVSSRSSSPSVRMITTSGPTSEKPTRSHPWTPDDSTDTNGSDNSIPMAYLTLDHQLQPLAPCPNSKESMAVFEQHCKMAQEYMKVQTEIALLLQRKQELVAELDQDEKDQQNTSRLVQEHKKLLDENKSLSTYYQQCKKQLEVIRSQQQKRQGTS

[7] = target: Mitogen-activated protein kinase kinase kinase 9 (Homo sapiens, UniProt P80192); experiment: Binding affinity to wild-type human partial length MLK1 (V88 to W426 residues) expressed in bacterial expression system assessed as residual binding level at 10 uM by active-site directed competition binding assay based Kinomescan method relative to control
Sequence of Mitogen-activated protein kinase kinase kinase 9 (P80192 whole entry, looked up, the tested form may be a part): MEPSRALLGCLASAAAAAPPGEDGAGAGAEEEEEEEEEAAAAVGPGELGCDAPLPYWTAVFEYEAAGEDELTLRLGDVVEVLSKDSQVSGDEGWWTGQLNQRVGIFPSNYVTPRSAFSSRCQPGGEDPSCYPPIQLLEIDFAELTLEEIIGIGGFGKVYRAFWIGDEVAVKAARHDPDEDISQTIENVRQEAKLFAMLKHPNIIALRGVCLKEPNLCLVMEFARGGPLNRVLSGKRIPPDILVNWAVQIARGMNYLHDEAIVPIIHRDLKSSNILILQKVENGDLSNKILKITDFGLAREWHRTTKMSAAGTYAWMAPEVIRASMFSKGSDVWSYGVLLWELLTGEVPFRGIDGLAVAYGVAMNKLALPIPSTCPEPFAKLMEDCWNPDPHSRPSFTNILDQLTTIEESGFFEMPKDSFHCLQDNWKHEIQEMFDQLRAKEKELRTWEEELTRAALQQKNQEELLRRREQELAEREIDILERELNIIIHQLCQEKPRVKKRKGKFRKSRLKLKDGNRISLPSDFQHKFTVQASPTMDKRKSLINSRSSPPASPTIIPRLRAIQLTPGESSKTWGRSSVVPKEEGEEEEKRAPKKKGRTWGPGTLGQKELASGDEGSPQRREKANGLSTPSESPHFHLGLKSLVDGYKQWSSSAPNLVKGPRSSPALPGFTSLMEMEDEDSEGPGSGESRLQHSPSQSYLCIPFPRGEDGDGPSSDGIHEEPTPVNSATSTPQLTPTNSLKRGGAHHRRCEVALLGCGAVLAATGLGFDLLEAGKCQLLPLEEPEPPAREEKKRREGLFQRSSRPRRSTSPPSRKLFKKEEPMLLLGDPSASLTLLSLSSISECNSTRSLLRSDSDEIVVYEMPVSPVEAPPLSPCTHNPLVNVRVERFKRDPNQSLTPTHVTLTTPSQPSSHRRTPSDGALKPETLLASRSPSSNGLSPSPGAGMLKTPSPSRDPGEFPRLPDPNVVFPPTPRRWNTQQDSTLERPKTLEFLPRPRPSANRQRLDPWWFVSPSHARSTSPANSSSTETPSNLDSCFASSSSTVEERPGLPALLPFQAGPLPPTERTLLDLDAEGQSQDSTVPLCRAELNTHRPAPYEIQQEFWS

[8] = target: T1, Serine/threonine-protein kinase pim-2; experiment: Binding affinity to wild-type human partial length PIM2 (M1 to E291 residues) expressed in bacterial expression system assessed as residual binding level at 10 uM by active-site directed competition binding assay based Kinomescan method
[9] = target: Non-receptor tyrosine-protein kinase TYK2 (Homo sapiens, UniProt P29597); experiment: Binding affinity to wild-type human partial length TYK2 JH2 domain-pseudokinase expressed in mammalian expression system by active-site directed competition binding assay based Kinomescan method
[10] = target: Serine/threonine-protein kinase DCLK3 (Homo sapiens, UniProt Q9C098); experiment: Binding affinity to wild-type human partial length DCAMKL3 (E140 to V628 residues) expressed in bacterial expression system by active-site directed competition binding assay based Kinomescan method
[11] = target: Phosphatidylinositol 4-kinase beta (Homo sapiens, UniProt Q9UBF8); experiment: Binding affinity to wild-type human full length PIK4CB (M1 to M828 residues) expressed in mammalian expression system by active-site directed competition binding assay based Kinomescan method
Sequence of Phosphatidylinositol 4-kinase beta (Q9UBF8 whole entry, the tested form may be a part): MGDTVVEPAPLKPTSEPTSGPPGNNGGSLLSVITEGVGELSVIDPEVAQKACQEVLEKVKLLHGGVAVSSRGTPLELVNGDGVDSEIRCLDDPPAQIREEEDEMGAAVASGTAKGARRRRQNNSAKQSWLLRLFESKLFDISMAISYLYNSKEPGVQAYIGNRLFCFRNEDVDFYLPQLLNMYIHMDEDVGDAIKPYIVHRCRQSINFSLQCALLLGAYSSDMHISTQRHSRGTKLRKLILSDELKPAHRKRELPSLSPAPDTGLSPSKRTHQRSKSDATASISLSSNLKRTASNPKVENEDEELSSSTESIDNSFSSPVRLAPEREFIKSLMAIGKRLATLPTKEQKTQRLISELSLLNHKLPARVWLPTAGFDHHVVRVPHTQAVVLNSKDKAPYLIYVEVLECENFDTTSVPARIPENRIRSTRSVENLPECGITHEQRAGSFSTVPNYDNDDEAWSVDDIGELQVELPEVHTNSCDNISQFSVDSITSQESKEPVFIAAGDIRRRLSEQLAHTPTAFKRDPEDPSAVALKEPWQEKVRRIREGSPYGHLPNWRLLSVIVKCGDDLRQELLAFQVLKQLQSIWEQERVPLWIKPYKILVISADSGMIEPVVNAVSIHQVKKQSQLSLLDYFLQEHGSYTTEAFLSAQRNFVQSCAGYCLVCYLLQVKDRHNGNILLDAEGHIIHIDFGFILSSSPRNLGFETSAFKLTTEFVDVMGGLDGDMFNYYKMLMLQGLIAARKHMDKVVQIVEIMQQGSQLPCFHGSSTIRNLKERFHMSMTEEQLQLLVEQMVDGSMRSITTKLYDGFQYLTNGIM

[12] = target: Serine/threonine-protein kinase RIO1 (Homo sapiens, UniProt Q9BRS2); experiment: Binding affinity to wild-type human full length RIOK1 (M1 to K568 residues) expressed in bacterial expression system by active-site directed competition binding assay based Kinomescan method
Sequence of Serine/threonine-protein kinase RIO1 (Q9BRS2 whole entry, the tested form may be a part): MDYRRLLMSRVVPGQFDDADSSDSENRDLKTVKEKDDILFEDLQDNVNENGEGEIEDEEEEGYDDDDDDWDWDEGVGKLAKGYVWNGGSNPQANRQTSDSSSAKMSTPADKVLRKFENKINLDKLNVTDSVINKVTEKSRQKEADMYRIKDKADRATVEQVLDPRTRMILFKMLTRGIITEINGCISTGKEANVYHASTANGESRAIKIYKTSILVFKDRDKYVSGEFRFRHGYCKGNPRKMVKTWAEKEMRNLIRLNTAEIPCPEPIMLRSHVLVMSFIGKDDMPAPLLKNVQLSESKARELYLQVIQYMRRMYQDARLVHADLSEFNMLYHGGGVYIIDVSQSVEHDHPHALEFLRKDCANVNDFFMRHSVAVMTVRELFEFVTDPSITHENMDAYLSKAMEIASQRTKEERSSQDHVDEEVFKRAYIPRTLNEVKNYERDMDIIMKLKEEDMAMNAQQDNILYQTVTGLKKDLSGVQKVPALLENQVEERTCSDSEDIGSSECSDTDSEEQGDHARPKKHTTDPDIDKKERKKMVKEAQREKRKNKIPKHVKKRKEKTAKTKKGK

[13] = system: MDA-MB-468; experiment: Cytotoxicity in human MDA-MB-468 cells assessed as reduction in cell viability incubated for 72 hrs by SRB assay; settings: MDA-MB-468, 72 h
[14] = system: JIMT-1; experiment: Cytotoxicity in human JIMT1 cells assessed as reduction in cell viability incubated for 72 hrs by SRB assay; settings: JIMT-1, 72 h
[15] = system: MDA-MB-231; experiment: Cytotoxicity in human MDA-MB-231 cells assessed as reduction in cell viability incubated for 72 hrs by SRB assay; settings: MDA-MB-231, 72 h
[16] = target: 3',5'-cyclic-AMP phosphodiesterase 4D (Homo sapiens) (UniProt Q08499); experiment: Inhibition of human recombinant phosphodiesterase type 4D2 using [3H]cAMP and cAMP incubated for 20 mins by scintillation counting method
Sequence of 3',5'-cyclic-AMP phosphodiesterase 4D (Homo sapiens) (Q08499 whole entry): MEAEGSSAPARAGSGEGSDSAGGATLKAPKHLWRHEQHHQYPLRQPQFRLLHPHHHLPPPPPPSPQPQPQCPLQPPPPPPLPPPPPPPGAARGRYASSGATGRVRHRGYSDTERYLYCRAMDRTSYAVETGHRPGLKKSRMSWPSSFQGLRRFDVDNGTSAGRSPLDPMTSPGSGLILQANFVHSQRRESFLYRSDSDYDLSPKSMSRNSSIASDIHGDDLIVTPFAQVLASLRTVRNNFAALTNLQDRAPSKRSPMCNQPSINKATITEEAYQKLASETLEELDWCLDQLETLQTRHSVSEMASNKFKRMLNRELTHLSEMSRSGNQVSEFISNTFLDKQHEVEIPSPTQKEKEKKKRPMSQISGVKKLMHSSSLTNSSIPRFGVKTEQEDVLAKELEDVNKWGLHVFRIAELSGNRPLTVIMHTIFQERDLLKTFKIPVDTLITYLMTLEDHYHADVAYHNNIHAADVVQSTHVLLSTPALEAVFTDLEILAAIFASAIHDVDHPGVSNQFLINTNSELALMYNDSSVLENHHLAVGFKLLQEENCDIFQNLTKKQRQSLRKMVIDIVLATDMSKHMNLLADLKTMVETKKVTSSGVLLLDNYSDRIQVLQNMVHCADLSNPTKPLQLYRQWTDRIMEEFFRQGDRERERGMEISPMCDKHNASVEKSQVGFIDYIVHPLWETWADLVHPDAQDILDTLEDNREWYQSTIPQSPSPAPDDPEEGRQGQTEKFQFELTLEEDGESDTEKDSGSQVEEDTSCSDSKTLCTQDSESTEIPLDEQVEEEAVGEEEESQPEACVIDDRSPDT

[17] = Toxicity in zebrafish embryos assessed as induction of scoliosis by measuring unaffected embryos level at 0.1 uM after 72 hrs (reference value: 100%); parameters: species or system Danio rerio; settings: in vivo
[18] = Toxicity in zebrafish embryos assessed as induction of tail degeneration by measuring unaffected embryos level at 0.1 uM after 72 hrs (reference value: 100%); format: tissue-based, Danio rerio; settings: in vivo
[19] = Stability in mouse liver microsomes supplemented with UDP-glucuronic acid assessed as parent compound remaining level at 5 uM incubated for 1 hr by LC-MS analysis; format: ADME, Microsome; settings: read-out: Stability
[20] = Stability in mouse plasma assessed as parent compound remaining level at 5 uM incubated for 1 hr by LC-MS analysis; format: ADME, cell-free; settings: read-out: Stability

**Q.** Which Activity [1] does the source give for `COc1cc2c(-c3cnc(-c4ccc[nH]4)o3)c[nH]c2cc1Br` here?
**A.** 2%

**Q.** What about the Activity [2] of the same compound?
**A.** 33%

**Q.** What about the Activity [3] of the same compound?
**A.** 20%

**Q.** And the Activity [4]?
**A.** 21%

**Q.** What about the Activity [5] of the same compound?
**A.** 54%

**Q.** And the Activity [6]?
**A.** 70%

**Q.** What about the Activity [7] of the same compound?
**A.** 59%

**Q.** And the Activity [8]?
**A.** 54%

**Q.** And the Kd [9]?
**A.** 1800 nM

**Q.** And the Kd [10]?
**A.** 1800 nM

**Q.** What about the Kd [11] of the same compound?
**A.** 2900 nM

**Q.** What about the Kd [12] of the same compound?
**A.** 2900 nM

**Q.** What about the IC50 [13] of the same compound?
**A.** 340 nM

**Q.** And the IC50 [14]?
**A.** 4170 nM

**Q.** What about the IC50 [15] of the same compound?
**A.** > 30000 nM

**Q.** What about the inhibition [16] of the same compound?
**A.** Active

**Q.** And the Activity [17]?
**A.** 95%

**Q.** What about the Activity [18] of the same compound?
**A.** 100%

**Q.** And the remaining at 1 h, 5 µM [19]?
**A.** 100%

**Q.** And the remaining at 1 h, 5 µM [20]?
**A.** 84%
